Drawing on ChEMBL document CHEMBL5726187, “Pyrimido-pyridazinone compounds and methods of use thereof” (2019), this text covers IC50 for 20 compounds.

Assay [1] has as its target Tyrosine-protein kinase JAK2 (Homo sapiens, UniProt O60674). In words: Inhibition of Enzymatic JAK2 Kinase Activity: Two μL of 10% DMSO in blank, substrate control and positive control wells and 2 μL of test compound in test wells was added. Thirteen μL of assay buffer in blank and substrate control wells and 13 μL of Enzyme buffer mix in positive and test wells was added. The reaction mixture was incubated for 30 minutes at RT on a plate shaker. Ultra Light-pGT substrate (5 μL) [poly Glu-Tyr (4:1) labeled with U Light TM dye, a tyrosine kinase substrate] and ATP mix was added to all wells. The reaction plate was incubated for 60 minutes at RT on a plate shaker. The reaction was stopped by adding 40 mM EDTA (10 μL) in buffer. Ten μL of antibody was added to all the wells.

The target of assay [2] is Tyrosine-protein kinase SYK (Homo sapiens, UniProt P43405). The assay is described as follows: Inhibition of Enzymatic Syk Kinase Activity: 2.5 μL of 10% DMSO or compound in 10% DMSO was added to the wells in a 96 well V-bottom plate. Optimized concentration of in-house Syk enzyme (different batches of Syk (356-635) kinase domain) were used at optimized concentrations) ranging from 0.035 ng to 7.5 ng/reaction diluted in assay buffer was added to a total volume of 12.5 μL). Compound and protein were incubated for 30 minutes at room temperature on a plate shaker. Ten μL of a substrate mix containing 100 μM ATP (0.25 μL), γ-P32-ATP (0.1 μL; 10 μCi/μL), pG4T (0.25 μL; 10 mg/mL) and 1× assay buffer (9.4 μL) was added to all the wells. Samples were incubated at 30° C. for 10 minutes after mixing. The reaction was stopped by the addition of 8N HCl (13 μL) containing 100 mM ATP. Thirty μL of sample was transferred to the center of a 2×2 cm2 Whatman P81 chromatography paper. After allowing the sample to dry for one minute, the assay squares were washed 3 times for 5 minutes each in ortho-phosphoric acid (0.5%) and once in acetone. Assay squares were dried for 15 minutes in a 30° C. oven and transferred to 96 well optiplate. Microscint-O reagent (100 μL, Perkin Elmer) was added to each well, the plate was sealed with Topseal-A microplates and incubated for 10 minutes at room temperature at very low speed on rocker and the plate was read in the Topcount NXL instrument.

Each structure is given as a SMILES string.

Sequence of Tyrosine-protein kinase JAK2 (O60674 whole entry): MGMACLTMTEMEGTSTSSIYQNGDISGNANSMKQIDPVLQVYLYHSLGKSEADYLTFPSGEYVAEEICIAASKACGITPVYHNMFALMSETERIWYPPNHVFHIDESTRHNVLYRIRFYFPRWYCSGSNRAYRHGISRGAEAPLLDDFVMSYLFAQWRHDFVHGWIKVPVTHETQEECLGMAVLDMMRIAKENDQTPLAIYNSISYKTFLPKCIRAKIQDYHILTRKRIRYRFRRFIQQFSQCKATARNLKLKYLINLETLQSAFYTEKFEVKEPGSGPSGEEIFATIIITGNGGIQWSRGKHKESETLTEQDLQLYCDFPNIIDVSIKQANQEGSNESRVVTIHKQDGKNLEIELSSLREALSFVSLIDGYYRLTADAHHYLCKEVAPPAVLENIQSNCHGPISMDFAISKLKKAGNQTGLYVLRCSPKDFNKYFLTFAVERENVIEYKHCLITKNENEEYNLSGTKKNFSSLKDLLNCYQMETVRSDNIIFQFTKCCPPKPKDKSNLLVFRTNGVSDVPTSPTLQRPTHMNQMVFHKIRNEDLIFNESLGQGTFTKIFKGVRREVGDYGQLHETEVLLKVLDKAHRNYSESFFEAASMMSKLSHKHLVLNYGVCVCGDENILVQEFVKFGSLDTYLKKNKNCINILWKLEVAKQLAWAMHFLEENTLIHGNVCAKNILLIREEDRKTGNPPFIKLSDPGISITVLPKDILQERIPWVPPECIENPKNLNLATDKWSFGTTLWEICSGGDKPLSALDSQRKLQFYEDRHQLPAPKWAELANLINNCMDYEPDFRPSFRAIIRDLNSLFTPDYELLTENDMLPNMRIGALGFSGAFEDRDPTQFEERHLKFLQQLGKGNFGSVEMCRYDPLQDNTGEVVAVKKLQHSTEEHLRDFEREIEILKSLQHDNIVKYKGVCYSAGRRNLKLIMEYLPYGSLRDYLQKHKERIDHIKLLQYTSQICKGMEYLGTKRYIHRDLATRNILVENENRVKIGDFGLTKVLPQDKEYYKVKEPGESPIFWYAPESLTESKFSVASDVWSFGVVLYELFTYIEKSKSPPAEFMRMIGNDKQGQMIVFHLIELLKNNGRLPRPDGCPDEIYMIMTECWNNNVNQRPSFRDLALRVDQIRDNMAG

Turning to `N#CCC1CCN(c2nc(Nc3ccc(N4CCC(F)(F)CC4)cc3)c3c(=O)[nH]ncc3n2)CC1`, the values for the IC50 in assay [1] and in assay [2] were less than 10 nM and less than 50 nM, respectively.

For `CC1CC(C)CN(c2nc(Nc3ccc(N4CCC(CC(=O)O)CC4)cc3)c3c(=O)[nH]ncc3n2)C1` (stereo unspecified), the concentration for half-maximal inhibition (IC50) (in general, the point on the concentration scale where inhibition reaches its midpoint) in assay [1] was less than 10 nM; in assay [2], less than 50 nM.

Regarding `O=C(O)C1CC12CCC(c1ccc(Nc3nc(NC4CCCCC4)nc4cn[nH]c(=O)c34)cc1)CC2` (stereo unspecified), the IC50 in assay [1] and in assay [2] was less than 50 nM in each case.

Turning to `O=C(O)CN1CCN(c2ccc(Nc3nc(N4CCCCCC4)nc4cn[nH]c(=O)c34)cc2)CC1`, the half-inhibitory concentration (IC50) in assay [1] and in assay [2] was less than 10 nM in each case.

In the case of `CC(C)(O)C(=O)N1CCN(c2ccc(Nc3nc(N4CCC(CC#N)CC4)nc4cn[nH]c(=O)c34)cn2)CC1`, the IC50 in assay [1] and in assay [2] was less than 50 nM throughout.

As for `CC(C)(CO)Oc1ccc(Nc2nc(N3CCC(CC#N)CC3)nc3cn[nH]c(=O)c23)cc1`, the IC50 in assay [1] and in assay [2] was less than 50 nM each time.

As for `O=C(O)C1CC12CCC(c1ccc(Nc3nc(N4CCCCC4)nc4cn[nH]c(=O)c34)cc1)CC2` (stereo unspecified), the IC50 in assay [1] and in assay [2] was less than 50 nM each time.

In the case of `COc1ccc(-c2nc(Nc3ccc(N4CCC5(CC4)CC5C(=O)O)cc3)c3c(=O)[nH]ncc3n2)cc1` (stereo unspecified), the IC50 in assay [1] and in assay [2] was less than 100 nM each time.

Turning to `CN(c1nc(Nc2ccc(N3CCC4(CC3)CC4C(=O)O)cc2)c2c(=O)[nH]ncc2n1)C1CCCCC1` (stereo unspecified), the IC50 in assay [1] was less than 10 nM; in assay [2] it was less than 50 nM.

With `N#CCC1CCN(c2nc(Nc3ccc(N4CCCC(O)C4)nc3)c3c(=O)[nH]ncc3n2)CC1` (stereo unspecified), the IC50 in assay [1] and in assay [2] was less than 50 nM each time.

Consider `O=c1[nH]ncc2nc(N3CCCCCC3)nc(Nc3ccc(OCCN4CCCNCC4)cc3)c12`, for which the concentration for half-maximal inhibition (IC50) in assay [1] was less than 10 nM; in assay [2], less than 50 nM.

Turning to `O=C1CC2(CCN(c3nc(Nc4ccc(CN5CCNCC5)cc4)c4c(=O)[nH]ncc4n3)CC2)CC(=O)N1`, the IC50 in assay [2] was more than 100 nM.

Turning to `N#CCC1CCN(c2nc(Nc3ccc(F)cc3)c3c(=O)[nH]ncc3n2)CC1`, the IC50 in assay [2] was more than 100 nM.

In assay [2], `O=c1[nH]ncc2nc(N3CCCCCC3)nc(Nc3ccc(OCCN4CCNCC4)cc3)c12` yielded an IC50 of less than 50 nM.

As for `CC(C)(C#N)N1CCN(CCOc2ccc(Nc3nc(N4CCCCCC4)nc4cn[nH]c(=O)c34)cc2)CC1`, the IC50 in assay [1] and in assay [2] was less than 50 nM throughout.

`COc1cc(Nc2nc(N3CCCCCC3)nc3cn[nH]c(=O)c23)cc(OC)c1` gave a half-maximal inhibitory concentration (IC50) in assay [2] of more than 100 nM.

For the compound `O=c1[nH]ncc2nc(N3CCCCC3)nc(Nc3ccc(OCCN4CCCNCC4)cc3)c12`, the half-inhibitory concentration (IC50) in assay [1] and in assay [2] was less than 50 nM in each case.

For `O=C(O)C1CC12CCN(c1ccc(Nc3nc(-c4ccc(F)cc4)nc4cn[nH]c(=O)c34)cc1)CC2` (stereo unspecified), the IC50 in assay [1] was less than 50 nM; in assay [2], less than 100 nM.

For `CC(C)(Oc1ccc(Nc2nc(N3CCCCCC3)nc3cn[nH]c(=O)c23)cc1)C(=O)O`, the figures for the IC50 in assay [1] and in assay [2] were less than 10 nM and less than 50 nM, respectively.

As for `CC(C)(C(N)=O)N1CCN(c2ccc(Nc3nc(N4CCCCCC4)nc4cn[nH]c(=O)c34)cc2)CC1`, the results for the IC50 in assay [1] and in assay [2] were less than 10 nM and less than 50 nM, respectively.
